According to patent publication EP0700399B1, “36-DERIVATIVES OF RIFAMYCINS AND THEIR USE AS ANTIMICROBIAL AGENTS” (GRUPPO LEPETIT S.P.A., priority 1993, dated 1994):
Where two headings read alike, the source gives them in different places.

What was measured:
Experiment in all cases: MIC by broth microdilution
Strept. pneumoniae = assay type: cell-based; details: Streptococcus pneumoniae; internal code L44; read-out: MIC of the compounds
[1] = tested on: Pseudomonas aerug. ATCC10145; assay type: cell-based, Pseudomonas aeruginosa; details: Pseudomonas, ATCC10145; internal code L4; read-out: MIC of the compounds
[2] = tested on: Esch. coli K12 rifa-r^(1); assay type: cell-based, Escherichia coli; details: Escherichia coli, read-out: MIC of the compounds
Esch. coli K12 wild type = assay type: cell-based; details: Escherichia coli, K12WILDTYPE, internal code G210, read-out: MIC of the compounds
[3] = tested on: Bacteroides fragilis ATCC 23745; assay type: cell-based; details: Bacteroides fragilis, ATCC23745; internal code L1010; anaerobic, 48 hours; read-out: MIC of the compounds
[4] = tested on: Propionibact. acnes ATCC 6919; assay type: cell-based, Propionibacterium acnes; details: Cutibacterium acnes, ATCC6919; internal code L1014; anaerobic, 48 hours; read-out: MIC of the compounds
[5] = tested on: Proteus vulgaris ATCC 881; assay type: cell-based; details: Proteus vulgaris, ATCC881; internal code L79; read-out: MIC of the compounds
Staph. aureus rifa-r^(2) = assay type: cell-based; details: Staphylococcus aureus, read-out: MIC of the compounds
Streptococcus pyogenes = assay type: cell-based; details: Streptococcus pyogenes; internal code L49; read-out: MIC of the compounds
Neisseria gonorrhoeae = assay type: cell-based; details: Neisseria gonorrhoeae; internal code L997; 5% carbon dioxide, 48 hours; read-out: MIC of the compounds
[6] = tested on: Staph. haemolyticus rifa-r^(2); assay type: cell-based; details: Staphylococcus haemolyticus, read-out: MIC of the compounds
[7] = tested on: Enterococc. faecalis ATCC 7080; assay type: cell-based, Enterococcus faecalis; details: Enterococcus faecalis, ATCC7080; internal code L149; read-out: MIC of the compounds
[8] = tested on: Esch. coli K12 hyperpermeable; assay type: cell-based, Escherichia coli; details: Escherichia coli, read-out: MIC of the compounds
Staphylococcus aureus = assay type: cell-based; details: Staphylococcus aureus; internal code L165; read-out: MIC of the compounds
[9] = tested on: Haemoph. influenzae ATCC 19418; assay type: cell-based, Haemophilus influenzae; details: Haemophilus influenzae, ATCC19418; internal code L970; 5% carbon dioxide, 48 hours; read-out: MIC of the compounds
[10] = tested on: Staph. epidermidis ATCC 12228; assay type: cell-based; details: Staphylococcus epidermidis, ATCC12228; internal code L147; read-out: MIC of the compounds
Escherichia coli = assay type: cell-based; details: Escherichia coli; internal code L47; read-out: MIC of the compounds

| Compound | MIC (Strept. pneumoniae) | MIC [1] | MIC [2] | MIC (Esch. coli K12 wild type) | MIC [3] | MIC [4] | MIC [5] | MIC (Staph. aureus rifa-r^(2)) | MIC (Streptococcus pyogenes) | MIC (Neisseria gonorrhoeae) | MIC [6] | MIC [7] | MIC [8] | MIC (Staphylococcus aureus) | MIC [9] | MIC [10] | MIC (Escherichia coli) | further results |
| --- | --- | --- | --- | --- | --- | --- | --- | --- | --- | --- | --- | --- | --- | --- | --- | --- | --- | --- |
| CO[C@H]1/C=C/O[C@@]2(C)Oc3c(C)c(O)c4c(c3C2=O)C(=O)C=C(NC(=O)/C(C)=C\C=C\[C@H](C)[C@H](O)[C@@H](C)[C@@H](O)[C@@H](C)[C@H](OC(=O)CSC)[C@@H]1C)C4=O [Compound C4, 36-Methylthiorifamycin S] | 0.002 µg/mL | 32 µg/mL | > 128 µg/mL | 64 µg/mL | 0.5 µg/mL | 0.06 µg/mL | 8 µg/mL | 32 µg/mL | 0.008 µg/mL | 0.5 µg/mL | 128 µg/mL | 0.5 µg/mL | 0.51 µg/mL | 0.008 µg/mL | 1 µg/mL | 0.001 µg/mL | 64 µg/mL | – |
| CO[C@H]1/C=C/O[C@@]2(C)Oc3c(C)c(O)c4c(c3C2=O)C(=O)C=C(NC(=O)/C(C)=C\C=C\[C@H](C)[C@H](O)[C@@H](C)[C@@H](O)[C@@H](C)[C@H](OC(=O)CF)[C@@H]1C)C4=O [Compound C2, 36-Fluororifamycin S] | 0.015 µg/mL | 64 µg/mL | – | ≥ 128 µg/mL | 2 µg/mL | 0.13 µg/mL | 32 µg/mL | – | 0.008 µg/mL | 2 µg/mL | – | 1 µg/mL | – | 0.015 µg/mL | 2 µg/mL | 0.015 µg/mL | 128 µg/mL | MIC ([2]; internal code G1064, rifampicin resistant strain, moderately resistant): > 128 µg/mL; MIC (Staph. aureus rifa-r^(2); internal code L1282, rifampicin resistant strain, highly resistant): 64 µg/mL; MIC ([6]; internal code L602, rifampicin resistant strain, highly resistant): ≥ 128 µg/mL; MIC ([8]; internal code G1640, hyperpermeable): 1 µg/mL |
| CO[C@H]1/C=C/O[C@@]2(C)Oc3c(C)c(O)c4c(c3C2=O)C(=O)C=C(NC(=O)/C(C)=C\C=C\[C@H](C)[C@H](O)[C@@H](C)[C@@H](O)[C@@H](C)[C@H](OC(=O)CI)[C@@H]1C)C4=O [Compound C10, 36-Iodorifamycin S] | 0.03 µg/mL | 32 µg/mL | ≥ 128 µg/mL | 128 µg/mL | 0.5 µg/mL | 0.13 µg/mL | 32 µg/mL | 32 µg/mL | 0.015 µg/mL | 16 µg/mL | 64 µg/mL | 2 µg/mL | 1 µg/mL | 0.06 µg/mL | 4 µg/mL | 0.06 µg/mL | 64 µg/mL | – |
